# Measurements reported in patent US11046731B2, “Zinc-binder based EBNA1-specific compounds” (priority 2018, dated 2021).
# Numbered stars: 1 amine (or outer) side, 2 acyl side, 3 side chain; on linkers, the order of the positions; unused ones are H or OH. Square brackets hold non-standard residues; d marks the D form. Peptide text beside a SMILES is read from it. * marks the point of attachment. X2 = O=C(c1ccc(/C=C/c2ccc(N[*:1])cc2)cc1)[*:2]; X1 = O=C(CN(Cc1ccccn1)Cc1ccccn1)*
# Tests used:
# [1] = test system: EBV-positive NPC43, C666-1, Raji cells; conditions: 1-20 μM, 5 days
# [2] = test system: BZLF1 (Zta) and BMRF1; test: IHC of EBV lytic proteins in C666-1-derived tumor tissues; format: in vivo, Epstein-Barr virus
# [3] = test system: Rta, BMRF1 and gp350/220 in EBV-positive NPC43 cells; test: Western blot of EBV lytic proteins; format: cell-based, Epstein-Barr virus; conditions: 10 μM, 7 days
# [4] = test system: EBV-negative HeLa xenografts; conditions: 4 μg/injection every three days, 19 days
# [5] = test system: EBV-positive C666-1 xenografts; test: C666-1 nude mice xenograft, intratumoral injection; format: in vivo, BALB/c nude mice; conditions: 18 days
smiles,measurement,setting,value
CSCC[C@H](NC(=O)[C@H](Cc1ccccc1)NC(=O)[C@H](Cc1ccc(O)cc1)NC(=O)c1ccc(/C=C/c2ccc(NC(=O)CN(Cc3ccccn3)Cc3ccccn3)cc2)cc1)C(=O)N[C@H](C(=O)N[C@@H](Cc1ccccc1)C(=O)O)C(C)C [ZRL5P2] (X1-[X2]YFMVF-OH),cytotoxicity / growth inhibition in EBV-positive cells,[1],least efficient
same,tumor areas positive for BMRF1 (IHC),[2],1.15%
same,protein levels of Rta and BMRF1,[3],much weaker than that of ZRL5P4
same,changes in body weights compared to the control,[4],did not cause any significant changes
same,effect on tumor growth,[5]; 4 μg/injection intra-tumoral twice weekly,did not significantly affect tumor growth
same,changes in body or organ weights compared to the vehicle control,[5]; 4 μg/injection,did not cause significant changes
